# Laboratory results as given in ChEMBL document CHEMBL3507680, “University of Dundee, Gates Library screen for HepG2 cell viability”.
# Assay: Human HepG2 cell viability assay in 384 well format
# Type: toxicity, cell-based
# Set-up: dose 125 nL, time 70.5 hour; cytotoxicity at 70.5 h: concentration not given beside the values
# Conditions: HepG2 cells, read-out: Inhibition
row,Compound,cytotoxicity at 70.5 h [%]
1,CCc1ccc(C(=O)N2CCCCC2CNS(C)(=O)=O)o1 (stereo not given),-2.32
2,CN1N=C(C(=O)NCCc2ccc(OC3CCCC3)cc2)CCC1=O,1.04
3,Cn1cc(C(=O)NCc2ccc(OC3CCCCC3)nc2)ccc1=O,-7.34
4,COc1ccccc1CN(C)C(=O)C[S+]([O-])Cc1cc(C)on1 (stereo not given),-1.97
5,Cc1nnc(NC(=O)NCCN(C(=O)OC(C)(C)C)C2CC2)s1,-4.34
6,Cn1cc(C(=O)NCCc2ccc(OC3CCCC3)cc2)ccc1=O,1.62
7,CC1CCN(Cc2ccccc2CNC(=O)C2CNC(=O)N2)CC1 (stereo not given),-4.5
8,COc1ccc(CN2CC(n3cccn3)C2)cc1F,-2.24
9,COc1ccccc1CCNC(=O)CNCC1CN(C)CCO1 (stereo not given),-3.47
10,Cc1cc(CNC(=O)NCCCC(=O)N2CCc3ccccc32)no1,-2.16
11,Cc1cc(C(=O)Nc2ccc(OCCN3CCN(C)CC3)cc2)[nH]n1,0.21
12,COc1ccc(CN(C)C(=O)CN2CC(n3cc(C)cn3)C2)cc1F,-2.77
13,CN(CCc1ccccn1)C(=O)Cn1cc(-c2ccccc2)nn1,-3.22
14,CC(C)c1nn(C)c(N(C)C)c1CNCc1ccnc(N(C)C)c1,-0.315
15,Cc1nsc(N2CCCN(C(=O)CCc3ccsc3)CC2)n1,-2
16,COc1ccc(CCC(=O)N2CCN(c3nc(C)ns3)CC2)cc1,-0.82
17,CCc1noc(CN2CCN(C(=O)OC(C)(C)C)C(C)C2)n1 (stereo not given),2.89
18,CN1CCOC(CNCC(=O)NCCc2ccc(F)cc2)C1 (stereo not given),-3.15
19,CNC(=O)c1cccc(CN2CCC(N(C)Cc3noc(C)n3)C2)c1 (stereo not given),-4.76
20,CCc1ccc(C(C)NCc2nccn2Cc2ccccc2)o1 (stereo not given),-9.96
21,COCCCn1ccc(NC2CCSCC2)n1,-8.74
22,CC(C)(C)C(=O)NCCCc1nc2ccccc2[nH]1,-11.6
23,O=C(NCCNc1ncccn1)NCCc1c(F)cccc1F,-13.1
24,O=C(NCCNc1ncccn1)c1ccc(OCc2ccccc2)nc1,-13.5

row,Compound,cytotoxicity at 70.5 h [%]
1,Cc1cc(CNC(=O)Nc2ccc(C(=O)NC3CC3)cc2)no1,-14.3
2,COC(=O)CCNC(=O)c1ccc(OCc2ccccc2)nc1,-6.92
3,Cc1nnc(CSc2n[nH]c(-c3ccccn3)n2)o1,-7.45
4,N#CC1COCCN1S(=O)(=O)c1ccc2ccccc2c1 (stereo not given),-1.81
5,Cn1ncc2c(=O)[nH]c(N3CCCC3c3cccc(Cl)c3)nc21 (stereo not given),-1.55
6,CC(C)NC(=O)NC(C)c1ccc(-c2ccncc2)cc1 (stereo not given),-7.15
7,Cc1cscc1C(=O)Nc1cncnc1N(C)C,-7.99
8,N#Cc1cccc(S(=O)(=O)N(CC2CCC2)c2cn[nH]c2)c1,-8.03
9,CCc1nc(CC)n(CC(=O)N(CC)CC)n1,-8.83
10,CC1CN(C(=O)c2sccc2Br)CCO1 (stereo not given),-10.9
11,Cc1ccc2c(c1)C(NCc1ccccn1)CC2 (stereo not given),-12.6
12,CNC(=O)c1cccc(CN2CCC(N(C)Cc3nnc(C)o3)C2)c1 (stereo not given),-6.28
13,CN(CC(N)=O)Cc1c(Cl)ccc2cccnc12,-2.22
14,O=C1CCCN1CCCN1CCCC(Cn2cncn2)C1 (stereo not given),3.37
15,O=C1OCCC1N1CCN(c2ccccn2)CC1 (stereo not given),-15.5
16,CN(Cc1ccc(F)c2cccnc12)C1CCS(=O)(=O)C1 (stereo not given),-9.82
17,Cc1nnc2ccc(N3CCN(Cc4nccn4C)CC3)nn12,5.33
18,Cc1cc(S(C)(=O)=O)c(C)c(S(=O)(=O)NCC2CCCO2)c1 (stereo not given),-16.8
19,O=C1CCCN1CCN1CCCCC1Cn1cccn1 (stereo not given),-10.6
20,CN(CCC#N)C(=O)CN1CCCN(Cc2noc(C3CC3)n2)CC1,-0.995
21,NC(=O)c1cncc(N2CCN(Cc3ccc(F)cc3Cl)CC2)n1,-3.73
22,COC(=O)c1cccc(CNC(=O)NCCC(F)(F)F)c1,1.57
23,Cc1ncc(CNC(=O)N(C)Cc2ccc([S+](C)[O-])cc2)s1 (stereo not given),-4.15
24,Cc1n[nH]cc1CNC(=O)Nc1cccc(OCC(F)(F)F)c1,-6.62

row,Compound,cytotoxicity at 70.5 h [%]
1,CCOc1ccc(Cl)c(C(=O)NC(C)C(N)=O)n1 (stereo not given),-5.7
2,O=C(c1ccccc1)N1CCN(C2CCc3ccc(F)cc32)CC1 (stereo not given),-9.61
3,Cc1nn(C)c(N2CCOCC2)c1CNCC1CCCN1C (stereo not given),-5.73
4,Cc1nn(C)c(N2CCOCC2)c1CNC1CCS(=O)(=O)C1 (stereo not given),-6.08
5,CS(=O)(=O)NCCC(=O)NC1(c2ccc(F)cc2)CCCC1,-6.92
6,CC(C)c1cc(C(=O)NCc2nc(-c3ccc(F)cc3)n[nH]2)n[nH]1,12.6
7,Cc1nn(C)c(NC(=O)C2SCCc3ccccc32)c1C (stereo not given),0.91
8,CCc1ccc(C2COCCN2C(=O)NCc2cccc(C#N)c2)o1 (stereo not given),-9.17
9,Cc1nc(C)c(C)c(N2CCC3(CCOC3)C2)n1 (stereo not given),17
10,c1cc(-c2noc(-c3cc(C4CC4)[nH]n3)n2)cc(N2CCCCC2)n1,-0.746
11,CCN(CC(F)(F)F)C(=O)C1CCCN(Cc2ccno2)C1 (stereo not given),-7.36
12,CCc1cnc(CN(C)C(=O)NC2CCN(C)C2=O)s1 (stereo not given),-7.59
13,COC(=O)N1CCN(Cc2ccccc2C(C)(C)C#N)CC1,-5.92
14,CCc1ccc(C2COCCN2C(=O)Nc2ccc(C#N)cc2)o1 (stereo not given),47.1
15,CCN(CC)Cc1ccc(CNC(=O)C(C)(C)n2cc(Br)cn2)cc1,15.4
16,O=C(CS(=O)(=O)Cc1nnnn1C1CC1)NCCc1ccccc1,-3.81
17,O=C(CS(=O)(=O)Cc1nnnn1C1CC1)NCC1CC1,-4.04
18,O=C(NCc1ccccc1CN1CCOCC1)Nc1nncs1,11
19,O=C(NCCn1ccnc1)C1(c2ccc3c(c2)OCCO3)CCCC1,-12
20,O=C(NCc1ccccc1CN1CCCCC1)Nc1nncs1,-10.2
21,CC(Cn1ccnc1)NS(=O)(=O)c1ccc(F)c(Cl)c1 (stereo not given),-1.84
22,CN(C1CCN(c2ccccn2)CC1)S(=O)(=O)c1ccccc1F,-3.26
23,CN(C1CCN(c2ccccn2)CC1)S(=O)(=O)c1cccc(F)c1,2.86
24,O=c1[nH]c(CCN2CCN(CC(F)(F)F)CC2)nc2ccccc12,-4.17

row,Compound,cytotoxicity at 70.5 h [%]
1,CCOCCN1CCN(CCc2nc3ccccc3c(=O)[nH]2)CC1,1.75
2,COCc1ccccc1C(=O)N1CCN(C2=NCC(C)(C)S2)CC1,-5.17
3,CC(C)CNC(=O)CC1OCCc2ccsc21 (stereo not given),-7.58
4,CCCNC(=O)CC1OCCc2ccsc21 (stereo not given),-6.25
5,COCCn1ccc(NCc2sccc2C)n1,-3.13
6,CNC(=O)CN1CCOC(c2ccccc2C(F)(F)F)C1 (stereo not given),7.85
7,COCc1nccc(C2CCCN(Cc3ccc(C#N)cc3)C2)n1 (stereo not given),-5.34
8,COCc1nccc(C2CCCN(Cc3ccc(SC)cc3)C2)n1 (stereo not given),-3.62
9,O=C(c1ccc2c(c1)OCCCO2)N1CCCCC1C1OCCO1 (stereo not given),-3.71
10,COCc1nccc(C2CCCN(Cc3ccc(C#N)cc3F)C2)n1 (stereo not given),-1.86
11,COCCNC(=O)C1(c2ccc(C)c(OC)c2)CCCC1,-10.9
12,O=C(CN1CCOC(c2ccccc2C(F)(F)F)C1)NC1CC1 (stereo not given),-7.54
13,CCN(CCC(=O)NC1CC1)Cc1ccc(Cl)s1,-11.3
14,COCCNS(=O)(=O)c1ccc(Cl)c(C(=O)N(C)Cc2sccc2C)c1,-12.1
15,COc1ccc(NC(=O)N(C)Cc2ccco2)cn1,-6.69
16,Cc1cccc(CNc2cncc(-n3cccn3)n2)c1,-5.29
17,O=C(CCSc1ccccc1)NCCn1nc2ccccn2c1=O,-8.89
18,CC1CCN(CC2CCCN(C(=O)Nc3ccccn3)C2)CC1 (stereo not given),-7.54
19,Cn1c(NC(=O)CNC(=O)C2CCCC2)nc2cc(Cl)ccc21,-9.81
20,O=C(NCCN1CCOCC1)c1ccc(-c2ccccc2)[nH]c1=O,-2.93
21,Cc1ccc(C(=O)NCCN2CCOCC2)c(=O)[nH]1,-11.5
22,COc1ccc(CC(=O)NCCn2nc3ccccn3c2=O)cc1,12.9
23,COc1c(CNCc2ccc(N3CCOCC3)cc2)c(C)nn1C,-9.85
24,O=C(NC1CCCCC1)C1CCCN(C(=O)Nc2ccccn2)C1 (stereo not given),-15.3

row,Compound,cytotoxicity at 70.5 h [%]
1,CN1CCN(C(=O)NCCNc2ncccn2)Cc2ccccc21,-14
2,Cc1cc(NCCn2cccn2)n2ncnc2n1,0.75
3,COCCC(C)NC(=O)Nc1ccc(N2CCOC2=O)c(OC)c1 (stereo not given),-11
4,Cc1ccc(NCCNC(=O)C2Cc3cc(C)c(C)cc3O2)nn1 (stereo not given),-2.18
5,COc1cc(NC(=O)N(C)Cc2ccc(Br)o2)ncn1,-8.49
6,CCC(CNC(=O)c1c(C)nn(C)c1OC)Oc1ccccc1 (stereo not given),-7.65
7,O=C(NCc1cccnc1)NCC(O)c1cccc(C(F)(F)F)c1 (stereo not given),-9.97
8,COC(=O)NCCCC(=O)NCC1(c2cccc(Cl)c2)CC1,20.6
9,CNS(=O)(=O)CC1CCCN1C(=O)c1cccc(Cl)c1 (stereo not given),-7.35
10,Cc1c(C(=O)N2CCSCC2)sc2nc(C(F)(F)F)ccc12,-9.06
11,Cc1c(C(N)=O)sc2nc(C(F)(F)F)ccc12,19.9
12,CN(Cc1nc(-c2cccnc2)no1)C(=O)c1cnc2n1CCCC2,-6.12
13,CCC(=O)N1CCC(NC2CCSCC2)C1 (stereo not given),-8.75
14,CN(C)S(=O)(=O)c1cccc(NC(=O)Cc2ccon2)c1,-4.37
15,Cc1nc(C)n(Cc2cccc(NC3CCN(C)C3=O)c2)n1 (stereo not given),-10.6
16,CC(OCC(F)(F)F)C(=O)NCCN(C)C (stereo not given),20.8
17,CCN(CC)CCNC(=O)C(C)OCC(F)(F)F (stereo not given),-3.49
18,CCSCc1cccc(NC2CCN(C)C2=O)c1 (stereo not given),19.7
19,COCCn1cc(NC(=O)C(C)CCc2ccccc2F)ccc1=O (stereo not given),-11.1
20,O=C(CCCn1cncn1)N1CCCCC1c1nccs1 (stereo not given),-4.13
21,CC(C)CC(=O)NCCCn1cncn1,16.9
22,Cc1n[nH]cc1CNCC(O)c1ccc(F)c(F)c1 (stereo not given),-7.55
23,COc1c(CNCc2nnc3n2CCCCC3)c(C)nn1C,-6.68
24,COc1c(CNCc2nnc3n2CCCCC3)c(C(C)C)nn1C,-4.88
